Reference: ChEMBL document CHEMBL4402527, “Recent advances in the development of cyclin-dependent kinase 7 inhibitors” (Eur J Med Chem, 2019)

What was measured:
CDK7/Cyclin H/MNAT1 = CDK7/Cyclin H/MNAT1 (Homo sapiens, UniProt P50613); assay: Inhibition of CDK7/CycH/MAT1 (unknown origin) by luciferase reporter gene assay; format: protein-complex assay
[1] = target: T1, Cyclin-dependent kinase 7 (Homo sapiens, UniProt P50613); assay: Inhibition of CDK7 (unknown origin) after 4 hrs
[2] = target: T2, Cyclin-dependent kinase 2 (Homo sapiens, UniProt P24941); assay: Inhibition of CDK2 (unknown origin) after 4 hrs
[3] = target: T3, Cyclin-dependent kinase 9 (Homo sapiens, UniProt P50750); assay: Inhibition of CDK9 (unknown origin) after 4 hrs
[4] = target: T1, Cyclin-dependent kinase 7; assay: Inhibition of CDK7 (unknown origin)
[5] = target: T4, Cyclin-dependent kinase 1 (Homo sapiens, UniProt P06493)
[6] = target: T5, Cyclin-dependent kinase 4 (Homo sapiens, UniProt P11802); assay: Inhibition of CDK4 (unknown origin)
[7] = target: T3, Cyclin-dependent kinase 9
[8] = target: T6, Cyclin-dependent kinase 6 (Homo sapiens, UniProt Q00534); assay: Inhibition of CDK6 (unknown origin)
[9] = target: T2, Cyclin-dependent kinase 2
KOPTK1 [10] = assay: Cytotoxicity against human KOPTK1 cells assessed as reduction in cell viability; format: functional, cell-based
KOPTK1 [11] = assay: Anti-tumor activity against human KOPTK1 cells xenografted in invivo animal model assessed as reduction in tumor growth at 10 mg/kg, ip relative to control; format: functional; conditions: read-out: TGI
Jurkat = assay: Cytotoxicity against human Jurkat cells assessed as reduction in cell viability; format: functional, cell-based
AGS = assay: Cytotoxicity against human AGS cells assessed as reduction in cell viability; format: functional, cell-based
[12] = target: T7, Cyclin-dependent kinase 5 (Homo sapiens, UniProt Q00535)
MGC-803 = assay: Cytotoxicity against human MGC803 cells assessed as reduction in cell viability; format: functional, cell-based
BGC-823 = assay: Anti-tumor activity against human BGC823 cells xenografted in invivo animal model assessed as reduction in tumor growth at 10 mg/kg, ip relative to control; format: functional; conditions: BGC-823, ip, read-out: TGI
[13] = target: Cyclin-dependent kinase 2/cyclin E1 (Homo sapiens, UniProt P24941); assay: Inhibition of CDK2/cycE1 (unknown origin) by luciferase reporter gene assay; format: protein-complex assay
MDA-MB-468 = assay: Cytotoxicity against human MDA-MB-468 cells assessed as reduction in cell viability; format: functional, cell-based
[14] = target: T5, Cyclin-dependent kinase 4; assay: Inhibition of CDK4 (unknown origin) by luciferase reporter gene assay
[15] = target: T4, Cyclin-dependent kinase 1; assay: Inhibition of CDK1 (unknown origin) by luciferase reporter gene assay
MDA-MB-231 = assay: Cytotoxicity against human MDA-MB-231 cells assessed as reduction in cell viability; format: functional, cell-based
[16] = target: T6, Cyclin-dependent kinase 6; assay: Inhibition of CDK6 (unknown origin) by luciferase reporter gene assay
[17] = target: T7, Cyclin-dependent kinase 5; assay: Inhibition of CDK5 (unknown origin) by luciferase reporter gene assay

T6 sequence (Q00534 whole entry): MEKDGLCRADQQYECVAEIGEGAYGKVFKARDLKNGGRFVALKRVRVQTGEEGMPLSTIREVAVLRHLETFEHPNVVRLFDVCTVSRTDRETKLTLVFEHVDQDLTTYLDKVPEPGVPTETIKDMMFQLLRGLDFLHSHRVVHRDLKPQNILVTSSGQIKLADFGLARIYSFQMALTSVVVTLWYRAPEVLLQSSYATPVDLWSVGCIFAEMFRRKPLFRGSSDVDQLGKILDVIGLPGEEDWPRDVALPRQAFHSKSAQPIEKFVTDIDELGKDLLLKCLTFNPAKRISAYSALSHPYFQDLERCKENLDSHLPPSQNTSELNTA
T3 sequence (P50750 whole entry): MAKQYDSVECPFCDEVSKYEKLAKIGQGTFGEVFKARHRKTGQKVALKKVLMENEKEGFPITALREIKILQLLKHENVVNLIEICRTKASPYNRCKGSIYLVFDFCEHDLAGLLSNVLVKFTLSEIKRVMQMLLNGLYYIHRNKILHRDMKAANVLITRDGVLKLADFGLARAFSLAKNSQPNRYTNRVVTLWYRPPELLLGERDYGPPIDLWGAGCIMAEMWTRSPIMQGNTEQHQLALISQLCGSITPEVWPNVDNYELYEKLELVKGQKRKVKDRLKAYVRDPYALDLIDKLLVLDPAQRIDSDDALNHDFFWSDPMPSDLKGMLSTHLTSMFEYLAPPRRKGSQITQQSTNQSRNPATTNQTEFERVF
T1 sequence (P50613 whole entry): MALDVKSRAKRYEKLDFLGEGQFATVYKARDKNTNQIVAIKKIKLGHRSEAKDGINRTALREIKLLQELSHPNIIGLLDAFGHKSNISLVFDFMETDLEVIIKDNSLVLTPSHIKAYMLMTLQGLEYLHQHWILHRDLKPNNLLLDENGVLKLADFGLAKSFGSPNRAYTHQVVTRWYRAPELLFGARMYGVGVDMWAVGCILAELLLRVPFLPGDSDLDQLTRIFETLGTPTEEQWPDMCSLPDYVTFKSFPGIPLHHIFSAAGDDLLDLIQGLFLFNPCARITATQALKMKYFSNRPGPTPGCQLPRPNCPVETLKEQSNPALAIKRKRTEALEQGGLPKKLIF
T5 sequence (P11802 whole entry): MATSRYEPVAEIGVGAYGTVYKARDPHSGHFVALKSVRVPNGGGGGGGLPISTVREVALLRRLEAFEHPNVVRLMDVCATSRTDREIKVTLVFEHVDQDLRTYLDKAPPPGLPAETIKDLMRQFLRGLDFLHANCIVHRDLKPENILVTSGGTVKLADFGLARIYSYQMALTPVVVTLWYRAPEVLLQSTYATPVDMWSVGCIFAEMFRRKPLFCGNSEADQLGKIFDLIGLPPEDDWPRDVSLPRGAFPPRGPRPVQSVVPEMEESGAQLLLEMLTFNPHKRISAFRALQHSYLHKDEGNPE
Chain of CDK7/Cyclin H/MNAT1 (P51946 whole entry): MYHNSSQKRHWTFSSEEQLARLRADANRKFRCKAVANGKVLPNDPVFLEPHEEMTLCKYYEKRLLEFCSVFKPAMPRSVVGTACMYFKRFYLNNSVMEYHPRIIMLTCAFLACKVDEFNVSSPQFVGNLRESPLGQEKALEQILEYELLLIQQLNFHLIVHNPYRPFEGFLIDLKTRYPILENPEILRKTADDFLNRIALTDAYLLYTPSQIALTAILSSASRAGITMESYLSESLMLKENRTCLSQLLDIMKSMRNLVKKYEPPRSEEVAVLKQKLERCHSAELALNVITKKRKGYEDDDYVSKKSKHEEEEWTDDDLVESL
Chain of CDK7/Cyclin H/MNAT1 (P50613 whole entry): as the sequence (P50613 whole entry) above
Chain of CDK7/Cyclin H/MNAT1 (P51948 whole entry, further chain): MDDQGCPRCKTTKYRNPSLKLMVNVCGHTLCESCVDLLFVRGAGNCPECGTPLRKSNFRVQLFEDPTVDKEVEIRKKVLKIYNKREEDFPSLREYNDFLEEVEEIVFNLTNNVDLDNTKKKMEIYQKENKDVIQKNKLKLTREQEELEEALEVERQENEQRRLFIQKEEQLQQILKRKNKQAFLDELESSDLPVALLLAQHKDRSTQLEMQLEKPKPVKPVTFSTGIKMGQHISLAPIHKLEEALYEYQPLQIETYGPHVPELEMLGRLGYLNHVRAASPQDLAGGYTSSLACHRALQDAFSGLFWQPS
T4 sequence (P06493 whole entry): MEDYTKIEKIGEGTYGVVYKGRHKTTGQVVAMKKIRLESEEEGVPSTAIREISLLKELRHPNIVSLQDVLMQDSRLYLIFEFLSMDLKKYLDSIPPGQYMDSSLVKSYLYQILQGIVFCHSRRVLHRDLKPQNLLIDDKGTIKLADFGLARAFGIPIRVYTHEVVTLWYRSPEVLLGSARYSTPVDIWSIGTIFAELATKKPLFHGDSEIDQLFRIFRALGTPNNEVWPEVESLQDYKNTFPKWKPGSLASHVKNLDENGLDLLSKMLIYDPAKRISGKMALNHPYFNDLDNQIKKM
T7 sequence (Q00535 whole entry): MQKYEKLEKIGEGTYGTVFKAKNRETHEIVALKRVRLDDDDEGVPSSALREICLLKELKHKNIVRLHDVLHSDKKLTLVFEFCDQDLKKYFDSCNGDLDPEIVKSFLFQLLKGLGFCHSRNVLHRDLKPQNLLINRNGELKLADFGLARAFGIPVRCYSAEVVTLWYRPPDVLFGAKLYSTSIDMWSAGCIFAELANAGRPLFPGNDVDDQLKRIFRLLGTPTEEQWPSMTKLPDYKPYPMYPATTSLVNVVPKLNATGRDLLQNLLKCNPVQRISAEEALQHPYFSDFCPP

CC(C)c1cnn2c(NCc3ccccc3)cc(NC[C@H]3CCCC[C@@H]3O)nc12
IC50 (CDK7/Cyclin H/MNAT1): 687 nM

FC(F)(F)c1cnc(N[C@H]2CCCNC2)nc1-c1n[nH]c2ccccc12
IC50 [1]: < 20 nM | IC50 [2]: > 200 nM | IC50 [3]: 20 to 200 nM

CC(C)c1cnn2c(NCc3ccccc3N(C)C)nc(OC3CCN(C)CC3)nc12
IC50 [4]: < 5 nM | IC50 [5]: > 10000 nM | IC50 [6]: > 10000 nM | IC50 [7]: 7450 nM | IC50 [8]: > 10000 nM | IC50 [9]: 3900 nM

C=CC(=O)Nc1ccc(C(=O)Nc2n[nH]c3c2CN(C(=O)N[C@H](CN(C)C)c2ccccc2)C3(C)C)cc1
IC50 [4]: > 100 nM

CN(C)C/C=C/C(=O)Nc1ccc(C(=O)Nc2cccc(Nc3ncc(Cl)c(-c4c[nH]c5ccccc45)n3)c2)cc1
IC50 (KOPTK1 [10]): 1 nM | inhibition in vivo at 10 mg/kg (KOPTK1 [11]): 10%

C=CC(=O)Nc1ccc(C(=O)Nc2cccc(Nc3n[nH]c4c3CN(C(=O)N[C@H](CN(C)C)c3ccccc3)C4(C)C)c2)cc1
IC50 [4]: 20 nM | IC50 (Jurkat): 2 nM

Clc1cnc(N[C@H]2CCCNC2)nc1-c1c[nH]c2ccccc12
IC50 [4]: < 20 nM | IC50 [7]: > 200 nM | IC50 [9]: > 200 nM

CC(C)c1cnn2c(NCc3cccc4c3cnn4C)nc(OC3CCCNC3)nc12 (stereo unspecified)
IC50 [4]: < 5 nM | IC50 [7]: < 50 nM | IC50 [9]: < 50 nM

CN(C)CCCC(=O)Nc1ccc(C(=O)Nc2cccc(Nc3ncc(Cl)c(-c4c[nH]c5ccccc45)n3)c2)cc1
IC50 [4]: 194 nM

Clc1cnc(NC2CCCCC2)nc1-c1c[nH]c2cccnc12
IC50 [1]: 20 nM | IC50 [3]: 20 to 200 nM

CN(C)C/C=C/C(=O)Nc1cccc(C(=O)Nc2cccc(Nc3ncc(Cl)c(-c4c[nH]c5ccccc45)n3)c2)c1
IC50 (AGS): 190 nM | IC50 [4]: 27 nM | IC50 [5]: 13.9 nM | IC50 [12]: 222 nM | IC50 (MGC-803): 740 nM | inhibition in vivo at 10 mg/kg (BGC-823): 50% | IC50 [7]: 134 nM | IC50 [9]: 96.9 nM

CC(C)c1cnn2c(NCc3ccccc3)cc(NC[C@]3(O)CCNC[C@H]3O)nc12 (racemic)
IC50 [13]: 2030 nM

Clc1cnc(N[C@@H]2CCCNC2)nc1-c1c[nH]c2ccccc12
IC50 [4]: 20 to 200 nM | IC50 [7]: > 200 nM | IC50 [9]: > 200 nM

C=CC(=O)Nc1ccc(C(=O)Nc2ccc(Nc3n[nH]c4c3CN(C(=O)N[C@H](CN(C)C)c3ccccc3)C4(C)C)cc2)cc1
IC50 [4]: < 100 nM

CC(C)c1cnn2c(NCc3ccccc3-n3cccn3)nc(OC3CCCNC3)nc12 (stereo unspecified)
IC50 [4]: 0.13 nM | IC50 [5]: 53 nM | IC50 [6]: > 10000 nM | IC50 [7]: 1710 nM | IC50 [8]: > 10000 nM | IC50 [9]: 6.4 nM

CC(C)c1cnn2c(NCc3ccccc3)cc(NC[C@@H]3CCNC[C@H]3O)nc12
IC50 (MDA-MB-468): 1500 nM | IC50 [14]: 42000 nM | IC50 [15]: 1520 nM | IC50 (MDA-MB-231): 1300 nM | IC50 [16]: 32100 nM | IC50 [17]: 9000 nM

CC(C)c1cnn2c(NCc3ccccc3)cc(NCC3CCNCC3)nc12
IC50 (CDK7/Cyclin H/MNAT1): 310 nM

CC(C)c1cnn2c(NCc3ccccc3)cc(NC[C@]3(CO)CCNC3)nc12
IC50 [13]: 1 nM | IC50 (CDK7/Cyclin H/MNAT1): 14 nM | IC50 [15]: 41 nM

CC(C)c1cnn2c(NCc3cccc4[nH]ncc34)nc(OC3CCCNC3)nc12 (stereo unspecified)
IC50 [4]: < 5 nM | IC50 [7]: < 50 nM | IC50 [9]: < 50 nM
